Data published in US20230077362A1 (CORTEVA AGRISCIENCE LLC, priority 2019, published 2023).
Read-outs that look alike come from different tables or passages of the source.

Assays:
[1] = test system: Cabbage Looper (Trichoplusia ni) ("CL"), second instar larvae; experiment: Bioassay on cabbage looper (CL), 128-well diet tray assay; assay type: in vivo; settings: for pest or weed control at 50 µg/cm2: Trichoplusia ni; for CL rating: Table ABC, species CL, C = not tested, D = no activity noticed
Outline: (§1)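 After sealing with a clear self-adhesive lid, the trays are incubated at 25° C. with 14 h light and 10 h dark for 5 to 7 days; mortality in each well is recorded as a percentage and averaged across the eight wells.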

[2] = test system: Beet Armyworm (Spodoptera exigua) ("BAW"), second instar larvae; experiment: Bioassay on beet armyworm (BAW), 128-well diet tray assay; assay type: in vivo; settings: for pest or weed control at 50 µg/cm2: Spodoptera exigua; for BAW rating: Table ABC, species BAW, C = not tested, D = no activity noticed
Outline: as §1

[3] = read-out: CL (Biological Results, rating)
[4] = read-out: BAW (Biological Results, rating)

COC(C)c1ccc(C)cc1N1C(=O)CS/C1=N\C(=O)Nc1ccc(-c2cn(-c3ccc(S(F)(F)(F)(F)F)cc3)cn2)cc1C (centres unmarked) [Compound J614, (Z)-1-(3-(2-(1-Methoxyethyl)-5-methylphenyl)-4-oxothiazolidin-2-ylidene)-3-(2-methyl-4-(1-(4-(pentafluoro-λ^6-sulfaneyl)phenyl)-1H-imidazol-4-yl)phenyl)urea]
pest or weed control at 50 µg/cm2 ([1]; read-out: CL rating): 50 to 100% | pest or weed control at 50 µg/cm2 ([2]; read-out: BAW rating): 50 to 100%

Cc1ccc(COCC(F)F)c(N2C(=O)CS/C2=N\C(=O)Nc2ccc(-c3ncn(-c4ccc(S(F)(F)(F)(F)F)cc4)n3)cc2F)c1 [Compound J446]
pest or weed control at 50 µg/cm2 ([1]; read-out: CL rating): 50 to 100% | pest or weed control at 50 µg/cm2 ([2]; read-out: BAW rating): 50 to 100%

Cc1ccc(-n2cnc(-c3ccc(NC(=O)/N=C4\SCC(=O)N4c4cc(C)ccc4COCC(F)(F)F)c(F)c3)n2)cc1 [Compound J752]
CL rating [1]: A (50-100) | BAW rating [2]: A (50-100)

CCCc1ccc(C)cc1N1C(=O)CS/C1=N\C(=O)Nc1ccc(-c2ncn(-c3ccc(C(F)(F)F)cn3)n2)cc1C [Compound J293, (Z)-1-(3-(5-Methyl-2-propylphenyl)-4-oxothiazolidin-2-ylidene)-3-(2-methyl-4-(1-(5-(trifluoromethyl)pyridin-2-yl)-1H-1,2,4-triazol-3-yl)phenyl)urea]
pest or weed control at 50 µg/cm2 [1, 3]: 50 to 100% | pest or weed control at 50 µg/cm2 [2, 4]: 50 to 100%

Cc1cc(-c2ncn(-c3ccc(OC(F)(F)F)cc3)n2)ccc1NC(=O)/N=C1\SCC(=O)N1c1cc(N(C)C)ccc1C(C)C [Compound J68, (Z)-1-(3-(5-(Dimethylamino)-2-isopropylphenyl)-4-oxothiazolidin-2-ylidene)-3-(2-methyl-4-(1-(4-(trifluoromethoxy)phenyl)-1H-1,2,4-triazol-3-yl)phenyl)urea]
pest or weed control at 50 µg/cm2 [1, 3]: 50 to 100% | pest or weed control at 50 µg/cm2 [2, 4]: 50 to 100%

CCOC(C)c1ccc(C)cc1N1C(=O)CS/C1=N\C(=O)Nc1ccc(-c2ncn(-c3ccc(C(F)F)cn3)n2)cc1F (centres unmarked) [Compound J354]
CL (Biological Results, rating) ([1]; Cabbage Looper (Trichoplusia ni), C = Not Tested): A (50-100) | BAW (Biological Results, rating) ([2]; Beet Armyworm (Spodoptera exigua), C = Not Tested): A (50-100)

Cc1ccc(COCC(Cl)Cl)c(N2C(=O)CS/C2=N\C(=O)Nc2ccc(-c3ncn(-c4ccc(C(F)(F)F)cc4)n3)cc2F)c1 [Compound J559]
CL rating [1]: A (50-100) | BAW rating [2]: A (50-100)

CCCc1ccc(N(C)C)cc1N1C(=O)CS/C1=N\C(=O)Nc1ccc(-c2ncn(-c3ccc(C(F)(F)F)cn3)n2)cc1F [Compound J282, (Z)-1-(3-(5-(Dimethylamino)-2-propylphenyl)-4-oxothiazolidin-2-ylidene)-3-(2-fluoro-4-(1-(5-(trifluoromethyl)pyridin-2-yl)-1H-1,2,4-triazol-3-yl)phenyl)urea]
pest or weed control at 50 µg/cm2 [1, 3]: 50 to 100% | pest or weed control at 50 µg/cm2 [2, 4]: 50 to 100%

COc1ccc(C(C)C)c(N2C(=O)CS/C2=N\C(=O)Nc2ccc(-c3ncn(-c4ccc(OC(F)(F)F)cn4)n3)cc2C#N)c1 [Compound J268, (Z)-1-(2-Cyano-4-(1-(5-(trifluoromethoxy)pyridin-2-yl)-1H-1,2,4-triazol-3-yl)phenyl)-3-(3-(2-isopropyl-5-methoxyphenyl)-4-oxothiazolidin-2-ylidene)urea]
pest or weed control at 50 µg/cm2 [1, 3]: 50 to 100% | pest or weed control at 50 µg/cm2 [2, 4]: 50 to 100%

CC(C)c1ccc(N(C)C)cc1N1C(=O)CS/C1=N\C(=O)Nc1ccc(-c2ncn(-c3ccc(C(F)(F)F)cn3)n2)cc1F [Compound J336, (Z)-1-(3-(5-(Dimethylamino)-2-isopropylphenyl)-4-oxothiazolidin-2-ylidene)-3-(2-fluoro-4-(1-(5-(trifluoromethyl)pyridin-2-yl)-1H-1,2,4-triazol-3-yl)phenyl)urea]
pest or weed control at 50 µg/cm2 [1, 3]: 50 to 100% | pest or weed control at 50 µg/cm2 [2, 4]: 50 to 100%

CC(C)c1ccc(N(C)C)cc1N1C(=O)CS/C1=N\C(=O)Nc1c(F)cc(-c2ncn(-c3ccc(OC(F)(F)F)cc3)n2)cc1F [Compound J82, (Z)-1-(2,6-Difluoro-4-(1-(4-(trifluoromethoxy)phenyl)-1H-1,2,4-triazol-3-yl)phenyl)-3-(3-(5-(dimethylamino)-2-isopropylphenyl)-4-oxothiazolidin-2-ylidene)urea]
pest or weed control at 50 µg/cm2 [1, 3]: 50 to 100% | pest or weed control at 50 µg/cm2 [2, 4]: 50 to 100%

Cc1ccc(-c2ccco2)c(N2C(=O)CS/C2=N\C(=O)Nc2ccc(-c3ncn(-c4ccc(OC(F)(F)F)cc4)n3)cc2C)c1 [Compound J488, (Z)-1-(3-(2-(Furan-2-yl)-5-methylphenyl)-4-oxothiazolidin-2-ylidene)-3-(2-methyl-4-(1-(4-(trifluoromethoxy)phenyl)-1H-1,2,4-triazol-3-yl)phenyl)urea]
pest or weed control at 50 µg/cm2 ([1]; read-out: CL rating): 50 to 100% | pest or weed control at 50 µg/cm2 ([2]; read-out: BAW rating): 50 to 100%

COCOc1cc(-c2ncn(-c3ccc(OC(F)(F)F)cc3)n2)ccc1NC(=O)/N=C1\SCC(=O)N1c1cc(C)ccc1OCC(F)(F)F [Compound J171, (Z)-1-(2-(Methoxymethoxy)-4-(1-(4-(trifluoromethoxy)phenyl)-1H-1,2,4-triazol-3-yl)phenyl)-3-(3-(5-methyl-2-(2,2,2-trifluoroethoxy)phenyl)-4-oxothiazolidin-2-ylidene)urea]
pest or weed control at 50 µg/cm2 [1, 3]: 50 to 100% | pest or weed control at 50 µg/cm2 [2, 4]: 50 to 100%

Cc1ccc([N+](=O)[O-])c(N2C(=O)CS/C2=N\C(=O)Nc2ccc(-c3ncn(-c4ccc(OC(F)(F)F)cc4)n3)cc2F)c1 [Compound J163, (Z)-1-(2-Fluoro-4-(1-(4-(trifluoromethoxy)phenyl)-1H-1,2,4-triazol-3-yl)phenyl)-3-(3-(5-methyl-2-nitrophenyl)-4-oxothiazolidin-2-ylidene)urea]
pest or weed control at 50 µg/cm2 [1, 3]: 50 to 100% | pest or weed control at 50 µg/cm2 [2, 4]: 50 to 100%

N#Cc1ccc(OCCC(F)(F)F)c(N2C(=O)CS/C2=N\C(=O)Nc2ccc(-c3ncn(-c4ccc([S+]([O-])C(F)(F)F)cc4)n3)cc2F)c1 (centres unmarked) [Compound J385, (Z)-1-(3-(5-Cyano-2-(3,3,3-trifluoropropoxy)phenyl)-4-oxothiazolidin-2-ylidene)-3-(2-fluoro-4-(1-(4-((trifluoromethyl)sulfinyl)phenyl)-1H-1,2,4-triazol-3-yl)phenyl)urea]
pest or weed control at 50 µg/cm2 ([1]; read-out: CL rating): 50 to 100% | pest or weed control at 50 µg/cm2 ([2]; read-out: BAW rating): 50 to 100%

Cc1ccc(N2C(=O)CS/C2=N\C(=O)Nc2ccc(-c3ncn(-c4ccc(OC(F)(F)F)cc4)n3)cc2C)c(COCC(F)(F)F)c1 [Compound J448]
CL rating [1]: A (50-100) | BAW rating [2]: A (50-100)

COc1cc(-c2ncn(-c3ccc(OC(F)(F)F)cc3)n2)ccc1NC(=O)/N=C1\SCC(=O)N1c1cc(C)ccc1C(C)OC (centres unmarked) [Compound J90, (Z)-1-(2-Methoxy-4-(1-(4-(trifluoromethoxy)phenyl)-1H-1,2,4-triazol-3-yl)phenyl)-3-(3-(2-(1-methoxyethyl)-5-methylphenyl)-4-oxothiazolidin-2-ylidene)urea]
pest or weed control at 50 µg/cm2 [1, 3]: 50 to 100% | pest or weed control at 50 µg/cm2 [2, 4]: 50 to 100%

CCOCc1ccc(C)cc1N1C(=O)CS/C1=N\C(=O)Nc1ccc(-c2ncn(-c3cccc(OC(F)(F)F)c3)n2)cc1F [Compound J711]
CL rating [1]: A (50-100) | BAW rating [2]: A (50-100)

COC(C)c1ccc(C)cc1N1C(=O)CS/C1=N\C(=O)Nc1ccc(-c2cn(-c3ccc(C(F)(F)F)cn3)cn2)cc1 (centres unmarked) [Compound J518, (Z)-1-(3-(2-(1-Methoxyethyl)-5-methylphenyl)-4-oxothiazolidin-2-ylidene)-3-(4-(1-(5-(trifluoromethyl)pyridin-2-yl)-1H-imidazol-4-yl)phenyl)urea]
pest or weed control at 50 µg/cm2 ([1]; read-out: CL rating): 50 to 100% | pest or weed control at 50 µg/cm2 ([2]; read-out: BAW rating): 50 to 100%
